Reference: PubChem BioAssay (NCI)
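These data come from cells grown in 96-well plates and exposed to compound for 48 hours at five concentrations. TGI denotes the concentration required for complete inhibition of growth.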

What was measured:
Assay in all cases: NCI anticancer screen, dose series, 48 h
SNB-75 CNS = tested on: SNB-75 CNS
SK-OV-3 ovarian = tested on: SK-OV-3 ovarian
CAKI-1 renal = tested on: CAKI-1 renal
ACHN renal = tested on: ACHN renal
NCI-H460 lung = tested on: NCI-H460 lung
SF-539 CNS = tested on: SF-539 CNS
A498 renal = tested on: A498 renal
SNB-19 CNS = tested on: SNB-19 CNS
COLO 205 colon = tested on: COLO 205 colon
U251 CNS = tested on: U251 CNS
SF-268 CNS = tested on: SF-268 CNS
MALME-3M melanoma = tested on: MALME-3M melanoma
MDA-MB-435 = tested on: MDA-MB-435
K-562 leukemia = tested on: K-562 leukemia
EKVX NSCLC = tested on: EKVX NSCLC
HT29 colon = tested on: HT29 colon
SF-295 CNS = tested on: SF-295 CNS
786-0 renal = tested on: 786-0 renal
MCF7 breast = tested on: MCF7 breast
UACC-62 melanoma = tested on: UACC-62 melanoma
OVCAR-3 ovarian = tested on: OVCAR-3 ovarian
HOP-62 NSCLC = tested on: HOP-62 NSCLC
A549 NSCLC = tested on: A549 NSCLC
BT-549 breast = tested on: BT-549 breast
OVCAR-5 ovarian = tested on: OVCAR-5 ovarian
MDA-N = tested on: MDA-N
RPMI-8226 leukemia = tested on: RPMI-8226 leukemia
TK-10 renal = tested on: TK-10 renal
DU-145 prostate = tested on: DU-145 prostate
RXF 393 renal = tested on: RXF 393 renal
NCI-H226 lung = tested on: NCI-H226 lung
HS 578T breast = tested on: HS 578T breast
OVCAR-4 ovarian = tested on: OVCAR-4 ovarian
T-47D breast = tested on: T-47D breast
OVCAR-8 ovarian = tested on: OVCAR-8 ovarian
KM12 colon = tested on: KM12 colon
NCI/ADR-RES ovarian = tested on: NCI/ADR-RES ovarian
SN12C renal = tested on: SN12C renal
SW-620 colon = tested on: SW-620 colon
UACC-257 melanoma = tested on: UACC-257 melanoma
MDA-MB-231 breast = tested on: MDA-MB-231 breast
PC-3 prostate = tested on: PC-3 prostate
CCRF-CEM leukemia = tested on: CCRF-CEM leukemia
UO-31 renal = tested on: UO-31 renal
MOLT-4 leukemia = tested on: MOLT-4 leukemia
HCT-116 colon = tested on: HCT-116 colon
SR leukemia = tested on: SR leukemia
M14 melanoma = tested on: M14 melanoma
LOX IMVI melanoma = tested on: LOX IMVI melanoma
HCT-15 colon = tested on: HCT-15 colon
SK-MEL-5 melanoma = tested on: SK-MEL-5 melanoma
SK-MEL-2 melanoma = tested on: SK-MEL-2 melanoma
NCI-H23 lung = tested on: NCI-H23 lung
SK-MEL-28 melanoma = tested on: SK-MEL-28 melanoma
HL-60(TB) leukemia = tested on: HL-60(TB) leukemia
IGROV1 ovarian = tested on: IGROV1 ovarian
HCC-2998 colon = tested on: HCC-2998 colon
NCI-H522 lung = tested on: NCI-H522 lung
HOP-92 NSCLC = tested on: HOP-92 NSCLC

Compound: CC(=O)OC1CCC2(C)C(CCC3C4CC=C(C5(C)OCCO5)C4(C)CCC32)C1 (configuration not stated)
- TGI (SNB-75 CNS): 73.7 µM
- TGI (SK-OV-3 ovarian): > 100 µM
- TGI (CAKI-1 renal): > 100 µM
- TGI (ACHN renal): > 100 µM
- TGI (NCI-H460 lung): 47.8 µM
- TGI (SF-539 CNS): 42.7 µM
- TGI (A498 renal): 61.8 µM
- TGI (SNB-19 CNS): > 100 µM
- TGI (COLO 205 colon): 32.9 µM
- TGI (U251 CNS): 39.4 µM
- TGI (SF-268 CNS): > 100 µM
- TGI (MALME-3M melanoma): 53.4 µM
- TGI (MDA-MB-435): 47.9 µM
- TGI (K-562 leukemia): > 100 µM
- TGI (EKVX NSCLC): 44.1 µM
- TGI (HT29 colon): 38.3 µM
- TGI (SF-295 CNS): 57.2 µM
- TGI (786-0 renal): 77.4 µM
- TGI (MCF7 breast): 53.9 µM
- TGI (UACC-62 melanoma): 53.1 µM
- TGI (OVCAR-3 ovarian): 44 µM
- TGI (HOP-62 NSCLC): 44.1 µM
- TGI (A549 NSCLC): > 100 µM
- TGI (BT-549 breast): 45.8 µM
- TGI (OVCAR-5 ovarian): 44.7 µM
- TGI (MDA-N): 44 µM
- TGI (RPMI-8226 leukemia): 34.1 µM
- TGI (TK-10 renal): > 100 µM
- TGI (DU-145 prostate): > 100 µM
- TGI (RXF 393 renal): 40.3 µM
- TGI (NCI-H226 lung): 66.8 µM
- TGI (HS 578T breast): 60.1 µM
- TGI (OVCAR-4 ovarian): 61 µM
- TGI (T-47D breast): > 100 µM
- TGI (OVCAR-8 ovarian): 48.8 µM
- TGI (KM12 colon): 67.4 µM
- TGI (NCI/ADR-RES ovarian): 46 µM
- TGI (SN12C renal): 44.4 µM
- TGI (SW-620 colon): 45.6 µM
- TGI (UACC-257 melanoma): 40.2 µM
- TGI (MDA-MB-231 breast): > 100 µM
- TGI (PC-3 prostate): 54.2 µM
- TGI (CCRF-CEM leukemia): 38.4 µM
- TGI (UO-31 renal): 62 µM
- TGI (MOLT-4 leukemia): 65.5 µM
- TGI (HCT-116 colon): 45.3 µM
- TGI (SR leukemia): 54.2 µM
- TGI (M14 melanoma): 52.8 µM
- TGI (LOX IMVI melanoma): 32.8 µM
- TGI (HCT-15 colon): 80.6 µM
- TGI (SK-MEL-5 melanoma): 28.9 µM
- TGI (SK-MEL-2 melanoma): 37.4 µM
- TGI (NCI-H23 lung): 66.6 µM
- TGI (SK-MEL-28 melanoma): 43 µM
- TGI (HL-60(TB) leukemia): 48.8 µM
- TGI (IGROV1 ovarian): 70.4 µM

Compound: O=C(Nc1ccc2ncccc2c1)c1cc2c(cc1Cl)Sc1nccn1S2(=O)=O
- TGI (SNB-75 CNS): 30.7 µM
- TGI (SK-OV-3 ovarian): 62.5 µM
- TGI (CAKI-1 renal): 79.5 µM
- TGI (ACHN renal): 87.6 µM
- TGI (NCI-H460 lung): 30.6 µM
- TGI (SF-539 CNS): 57.4 µM
- TGI (SNB-19 CNS): 34.6 µM
- TGI (COLO 205 colon): 37.3 µM
- TGI (U251 CNS): 26.4 µM
- TGI (SF-268 CNS): 48.4 µM
- TGI (MALME-3M melanoma): 35.1 µM
- TGI (MDA-MB-435): 17.1 µM
- TGI (K-562 leukemia): 47 µM
- TGI (EKVX NSCLC): 39.1 µM
- TGI (HT29 colon): 31.3 µM
- TGI (SF-295 CNS): 42 µM
- TGI (786-0 renal): 27.9 µM
- TGI (MCF7 breast): 35.2 µM
- TGI (UACC-62 melanoma): 32.7 µM
- TGI (OVCAR-3 ovarian): 47.6 µM
- TGI (HOP-62 NSCLC): 39.8 µM
- TGI (A549 NSCLC): 40.6 µM
- TGI (BT-549 breast): 41.2 µM
- TGI (OVCAR-5 ovarian): 39.6 µM
- TGI (MDA-N): 18.3 µM
- TGI (RPMI-8226 leukemia): 41 µM
- TGI (TK-10 renal): 69.4 µM
- TGI (DU-145 prostate): 31 µM
- TGI (HCC-2998 colon): 27.8 µM
- TGI (RXF 393 renal): 33.6 µM
- TGI (NCI-H226 lung): 35.4 µM
- TGI (HS 578T breast): > 100 µM
- TGI (OVCAR-4 ovarian): 73 µM
- TGI (T-47D breast): 45.4 µM
- TGI (OVCAR-8 ovarian): 43.7 µM
- TGI (KM12 colon): 21.7 µM
- TGI (NCI/ADR-RES ovarian): 47.6 µM
- TGI (SN12C renal): 33.3 µM
- TGI (NCI-H522 lung): 24.5 µM
- TGI (SW-620 colon): 34.1 µM
- TGI (UACC-257 melanoma): 47.8 µM
- TGI (MDA-MB-231 breast): 45.1 µM
- TGI (PC-3 prostate): > 100 µM
- TGI (HOP-92 NSCLC): 76.7 µM
- TGI (UO-31 renal): 39.8 µM
- TGI (MOLT-4 leukemia): 45.5 µM
- TGI (HCT-116 colon): 25.4 µM
- TGI (SR leukemia): 45.2 µM
- TGI (M14 melanoma): 29.8 µM
- TGI (LOX IMVI melanoma): 34.2 µM
- TGI (HCT-15 colon): 24.1 µM
- TGI (SK-MEL-5 melanoma): 28.8 µM
- TGI (SK-MEL-2 melanoma): 33.3 µM
- TGI (NCI-H23 lung): 32.5 µM
- TGI (SK-MEL-28 melanoma): 42 µM
- TGI (HL-60(TB) leukemia): 26.6 µM
- TGI (IGROV1 ovarian): 29.3 µM

Compound: CC(=O)N1C(Nc2cnc3ccccc3c2)CCN1c1ccccc1 (configuration not stated)
- TGI (SNB-75 CNS): > 10 µM
- TGI (SK-OV-3 ovarian): > 10 µM
- TGI (CAKI-1 renal): > 10 µM
- TGI (ACHN renal): > 10 µM
- TGI (NCI-H460 lung): > 10 µM
- TGI (SF-539 CNS): > 10 µM
- TGI (SNB-19 CNS): > 10 µM
- TGI (COLO 205 colon): > 10 µM
- TGI (SF-268 CNS): > 10 µM
- TGI (MALME-3M melanoma): > 10 µM
- TGI (MDA-MB-435): > 10 µM
- TGI (K-562 leukemia): > 10 µM
- TGI (EKVX NSCLC): > 10 µM
- TGI (HT29 colon): > 10 µM
- TGI (SF-295 CNS): > 10 µM
- TGI (786-0 renal): > 10 µM
- TGI (MCF7 breast): > 10 µM
- TGI (OVCAR-3 ovarian): > 10 µM
- TGI (HOP-62 NSCLC): > 10 µM
- TGI (A549 NSCLC): > 10 µM
- TGI (BT-549 breast): > 10 µM
- TGI (OVCAR-5 ovarian): > 10 µM
- TGI (MDA-N): > 10 µM
- TGI (RPMI-8226 leukemia): > 10 µM
- TGI (TK-10 renal): > 10 µM
- TGI (DU-145 prostate): > 10 µM
- TGI (HCC-2998 colon): > 10 µM
- TGI (RXF 393 renal): > 10 µM
- TGI (NCI-H226 lung): > 10 µM
- TGI (HS 578T breast): > 10 µM
- TGI (OVCAR-4 ovarian): > 10 µM
- TGI (T-47D breast): > 10 µM
- TGI (OVCAR-8 ovarian): > 10 µM
- TGI (NCI/ADR-RES ovarian): > 10 µM
- TGI (SN12C renal): > 10 µM
- TGI (NCI-H522 lung): > 10 µM
- TGI (SW-620 colon): > 10 µM
- TGI (UACC-257 melanoma): > 10 µM
- TGI (MDA-MB-231 breast): > 10 µM
- TGI (PC-3 prostate): > 10 µM
- TGI (CCRF-CEM leukemia): > 10 µM
- TGI (UO-31 renal): > 10 µM
- TGI (MOLT-4 leukemia): > 10 µM
- TGI (HCT-116 colon): > 10 µM
- TGI (SR leukemia): > 10 µM
- TGI (M14 melanoma): > 10 µM
- TGI (LOX IMVI melanoma): > 10 µM
- TGI (HCT-15 colon): > 10 µM
- TGI (SK-MEL-5 melanoma): > 10 µM
- TGI (SK-MEL-2 melanoma): > 10 µM
- TGI (NCI-H23 lung): > 10 µM
- TGI (SK-MEL-28 melanoma): > 10 µM
- TGI (HL-60(TB) leukemia): > 10 µM
- TGI (IGROV1 ovarian): > 10 µM
